The assay has as its system L1210 leukemia ip in BDF1 mice, survival T/C. Put plainly: NCI In Vivo Anticancer Drug Screen. Data for tumor model L1210 Leukemia (intraperitoneal) in B6D2F1 (BDF1) mice. The following applies: endpoint: mean survival time, higher = longer survival. Put shortly: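 Tumor cells were implanted, animals were treated, and survival was followed. The result divides the treated measurement by the vehicle-control measurement.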

The mark [1] stands for this setting: dose: 25.0 mg/kg/injection, schedule: Q01DX009 (ip), vehicle: saline.
[2] abbreviates: dose: 50.0 mg/kg/injection, schedule: Q01DX009 (ip), vehicle: saline.
[3] abbreviates: dose: 100.0 mg/kg/injection, schedule: Q04DX003 (ip), vehicle: saline.
[4] abbreviates: dose: 200.0 mg/kg/injection, schedule: Q04DX003 (ip), vehicle: saline.
[5] abbreviates: dose: 100.0 mg/kg/injection, schedule: Q01DX009 (ip), vehicle: saline.
Where [6] appears, read: dose: 200.0 mg/kg/injection, schedule: Q01DX009 (ip), vehicle: saline.
The mark [7] stands for this setting: dose: 50.0 mg/kg/injection, schedule: Q01DX001 (ip), vehicle: carboxymethylcellulose (CMC).
Setting [8] is: dose: 100.0 mg/kg/injection, schedule: Q01DX001 (ip), vehicle: carboxymethylcellulose (CMC).
Where [9] appears, read: dose: 200.0 mg/kg/injection, schedule: Q01DX001 (ip), vehicle: carboxymethylcellulose (CMC).

“And” between values parts separate entries of the source, which are not always exact repeats. Equal entries are not always repeated. Inconclusive results and toxic doses are left out.

Turning to `O=P(Oc1ccc(OP(=O)(N2CC2)N2CC2)cc1)(N1CC1)N1CC1`, the T/C by setting is: (dose: 9.0 mg/kg/injection, schedule: Q01DX009 (ip), vehicle: saline) 96 % of control; (dose: 9.5 mg/kg/injection, schedule: Q01DX001 (ip), vehicle: saline) 98 % of control; (dose: 13.0 mg/kg/injection, schedule: Q01DX009 (ip), vehicle: saline) 110 % of control; (dose: 19.0 mg/kg/injection, schedule: Q01DX001 (ip), vehicle: saline) 110 % of control; (dose: 20.0 mg/kg/injection, schedule: Q01DX009 (ip), vehicle: saline) 104 % of control; (dose: 22.0 mg/kg/injection, schedule: Q01DX Z (ip), vehicle: other) 103 % of control. Moreover, the T/C is, setting by setting: (dose: 32.0 mg/kg/injection, schedule: Q01DX009 (ip), vehicle: saline) 100 % of control; (dose: 33.0 mg/kg/injection, schedule: Q01DX Z (ip), vehicle: other) 104 % of control; (dose: 38.0 mg/kg/injection, schedule: Q01DX001 (ip), vehicle: saline) 102 % of control; (dose: 50.0 mg/kg/injection, schedule: Q01DX Z (ip), vehicle: other) 114 % of control; (dose: 54.0 mg/kg/injection, schedule: Q01DX009 (ip), vehicle: saline) 186 % of control; (dose: 75.0 mg/kg/injection, schedule: Q01DX Z (ip), vehicle: other) 123 % of control. Further, the T/C is 166 % of control (dose: 90.0 mg/kg/injection, schedule: Q01DX009 (ip), vehicle: saline); 101 % of control (dose: 150.0 mg/kg/injection, schedule: Q01DX009 (ip), vehicle: saline); 153 % of control (dose: 300.0 mg/kg/injection, schedule: Q01DX001 (ip), vehicle: saline).
With `O=C1COC(C(Cl)(Cl)Cl)CN1` (configuration not stated), the T/C runs as follows: (dose: 100.0 mg/kg/injection, schedule: Q01DX001 (ip), vehicle: saline with Tween-80) 108 % of control; (dose: 200.0 mg/kg/injection, schedule: Q01DX001 (ip), vehicle: saline with Tween-80) 105 % of control; (dose: 400.0 mg/kg/injection, schedule: Q01DX001 (ip), vehicle: saline with Tween-80) 103 % of control.
Take `CCOC(=O)N1C2C=CC(C2)N1C(=O)OCC`: the T/C runs as follows: (dose: 100.0 mg/kg/injection, schedule: Q04DX002 (sc), vehicle: olive oil, sesame oil, peanut oil) 94 % of control; (dose: 200.0 mg/kg/injection, schedule: Q04DX002 (sc), vehicle: olive oil, sesame oil, peanut oil) 102 % of control; (dose: 400.0 mg/kg/injection, schedule: Q04DX002 (sc), vehicle: olive oil, sesame oil, peanut oil) 97 % of control.
With `CSc1sc2ccccc2[n+]1C`, the T/C runs as follows: under setting [1], 102 % of control; under setting [2], 96 % of control and 108 % of control; under setting [3], 97 % of control; under setting [4], 113 % of control.
As to `C/C=[N+](/[O-])CC`, the T/C under setting [5] is 102 % of control; the T/C under setting [3] is 102 % of control; the T/C under setting [6] is 101 % of control; the T/C under setting [4] was 105 % of control; the T/C (dose: 400.0 mg/kg/injection, schedule: Q01DX009 (ip), vehicle: saline) was 101 % of control; the T/C (dose: 400.0 mg/kg/injection, schedule: Q04DX003 (ip), vehicle: saline) was 110 % of control.
Consider `CNC(C)CC1CCCCC1` (configuration not stated), for which the T/C by setting is: (dose: 0.78 mg/kg/injection, schedule: Q04DX003 (ip), vehicle: saline) 94 % of control; (dose: 1.56 mg/kg/injection, schedule: Q01DX009 (ip), vehicle: saline) 100 % of control; (dose: 1.56 mg/kg/injection, schedule: Q04DX003 (ip), vehicle: saline) 98 % of control; (dose: 3.12 mg/kg/injection, schedule: Q01DX009 (ip), vehicle: saline) 102 % of control; (dose: 3.12 mg/kg/injection, schedule: Q04DX003 (ip), vehicle: saline) 98 % of control; (dose: 6.25 mg/kg/injection, schedule: Q01DX009 (ip), vehicle: saline) 97 % of control. In addition, the T/C reads like this: (dose: 6.25 mg/kg/injection, schedule: Q04DX003 (ip), vehicle: saline) 98 % of control; (dose: 12.5 mg/kg/injection, schedule: Q01DX009 (ip), vehicle: saline) 96 % of control; (dose: 12.5 mg/kg/injection, schedule: Q04DX003 (ip), vehicle: saline) 100 % of control; under setting [1], 97 % of control; (dose: 25.0 mg/kg/injection, schedule: Q04DX003 (ip), vehicle: saline with Tween-80) 94 % of control; under setting [2], 106 % of control.
`OCCCN=Cc1ccccc1O.[Co]`: the T/C runs as follows: (dose: 5.0 mg/kg/injection, schedule: Q01DX001 (ip), vehicle: saline) 100 % of control; (dose: 10.0 mg/kg/injection, schedule: Q01DX001 (ip), vehicle: saline) 94 % of control; (dose: 20.0 mg/kg/injection, schedule: Q01DX001 (ip), vehicle: saline) 100 % of control; (dose: 40.0 mg/kg/injection, schedule: Q01DX001 (ip), vehicle: saline) 102 % of control; (dose: 80.0 mg/kg/injection, schedule: Q01DX001 (ip), vehicle: saline) 105 % of control.
With `CC(=O)C=P(c1ccccc1)(c1ccccc1)c1ccccc1`, the T/C is, setting by setting: under setting [7], 113 % of control; under setting [8], 97 % of control; under setting [9], 101 % of control.
As to `CCOP(=O)(OCC)C1C(C)N1C(=O)Nc1ccccc1` (configuration not stated), the T/C runs as follows: (dose: 25.0 mg/kg/injection, schedule: Q01DX009 (ip), vehicle: Klucel (hydroxypropylcellulose) (HPC)) 106 % of control; (dose: 50.0 mg/kg/injection, schedule: Q01DX009 (ip), vehicle: Klucel (hydroxypropylcellulose) (HPC)) 105 % of control; (dose: 100.0 mg/kg/injection, schedule: Q01DX009 (ip), vehicle: Klucel (hydroxypropylcellulose) (HPC)) 110 % of control; (dose: 100.0 mg/kg/injection, schedule: Q04DX003 (ip), vehicle: Klucel (hydroxypropylcellulose) (HPC)) 101 % of control; (dose: 200.0 mg/kg/injection, schedule: Q04DX003 (ip), vehicle: Klucel (hydroxypropylcellulose) (HPC)) 100 % of control; (dose: 400.0 mg/kg/injection, schedule: Q04DX003 (ip), vehicle: Klucel (hydroxypropylcellulose) (HPC)) 106 % of control.
As for `CCC(N)(CC)C(=O)O`, the T/C by setting is: under setting [2], 102 % of control; under setting [5], 98 % of control; under setting [6], 95 % of control.
With `CCCCC(=O)N1CCCCC1C` (configuration not stated), the T/C under setting [7] was 102 % of control; the T/C (dose: 50.0 mg/kg/injection, schedule: Q01DX009 (ip), vehicle: carboxymethylcellulose (CMC)) was 94 % of control and 100 % of control; the T/C (dose: 50.0 mg/kg/injection, schedule: Q04DX003 (ip), vehicle: carboxymethylcellulose (CMC)) was 96 % of control; the T/C under setting [8] is 101 % of control; the T/C (dose: 100.0 mg/kg/injection, schedule: Q01DX009 (ip), vehicle: carboxymethylcellulose (CMC)) is 97 % of control and 98 % of control; the T/C (dose: 100.0 mg/kg/injection, schedule: Q04DX002 (ip), vehicle: carboxymethylcellulose (CMC)) is 105 % of control. For the same molecule, the T/C reads like this: (dose: 100.0 mg/kg/injection, schedule: Q04DX003 (ip), vehicle: carboxymethylcellulose (CMC)) 100 % of control; under setting [9], 101 % of control; (dose: 200.0 mg/kg/injection, schedule: Q01DX009 (ip), vehicle: carboxymethylcellulose (CMC)) 96 % of control and 97 % of control; (dose: 200.0 mg/kg/injection, schedule: Q04DX002 (ip), vehicle: carboxymethylcellulose (CMC)) 98 % of control; (dose: 200.0 mg/kg/injection, schedule: Q04DX003 (ip), vehicle: carboxymethylcellulose (CMC)) 105 % of control; (dose: 400.0 mg/kg/injection, schedule: Q04DX002 (ip), vehicle: carboxymethylcellulose (CMC)) 102 % of control.

Values taken from PubChem BioAssay AID248 (DTP/NCI, 2004).
